From PubChem BioAssay AID2060508 (Molecular Pharmacology Branch, DTP, NCI, 2025)

System: 454973-116-R2-J3-PDC spheroids, viability, % test/control
Assay: Anticancer human tumor 454973-116-R2-J3-PDC patient-derived pancreatic carcinoma cell line growth inhibition [GQUAD]
Conditions: spheroids with HUVEC and MSC; for IC50: curve of first compound; for viability, T/C: stronger effect = lower value
How it was run: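 Viability of tumor cells grown as complex spheroids with endothelial and stromal cells, exposed to drug combinations. Top concentration at or near clinical Cmax (else 10 microM), diluted in half-log increments.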

[1] = second compound 0.0316 µM, first compound 0.0316 µM
[2] = second compound 0.0316 µM, first compound 0.1 µM
[3] = second compound 0.0316 µM, first compound 0.316 µM
[4] = second compound 0.0316 µM, first compound 1 µM
[5] = second compound 0.0316 µM, first compound 3.16 µM
[6] = second compound 0.0316 µM, first compound 10 µM
[7] = second compound 0.1 µM, first compound 0.0316 µM
[8] = second compound 0.1 µM, first compound 0.1 µM
[9] = second compound 0.1 µM, first compound 0.316 µM
[10] = second compound 0.1 µM, first compound 1 µM
[11] = second compound 0.1 µM, first compound 3.16 µM
[12] = second compound 0.1 µM, first compound 10 µM
[13] = second compound 0.316 µM, first compound 0.0316 µM
[14] = second compound 0.316 µM, first compound 0.1 µM
[15] = second compound 0.316 µM, first compound 0.316 µM
[16] = second compound 0.316 µM, first compound 1 µM
[17] = second compound 0.316 µM, first compound 3.16 µM
[18] = second compound 0.316 µM, first compound 10 µM
[19] = second compound 1 µM, first compound 0.0316 µM
[20] = second compound 1 µM, first compound 0.1 µM
[21] = second compound 1 µM, first compound 0.316 µM
[22] = second compound 1 µM, first compound 1 µM
[23] = second compound 1 µM, first compound 3.16 µM
[24] = second compound 1 µM, first compound 10 µM
[25] = second compound 3.16 µM, first compound 0.0316 µM
[26] = second compound 3.16 µM, first compound 0.1 µM
[27] = second compound 3.16 µM, first compound 0.316 µM
[28] = second compound 3.16 µM, first compound 1 µM
[29] = second compound 3.16 µM, first compound 3.16 µM
[30] = second compound 3.16 µM, first compound 10 µM
[31] = second compound 10 µM, first compound 0.0316 µM
[32] = second compound 10 µM, first compound 0.1 µM
[33] = second compound 10 µM, first compound 0.316 µM
[34] = second compound 10 µM, first compound 1 µM
[35] = second compound 10 µM, first compound 3.16 µM
[36] = second compound 10 µM, first compound 10 µM
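Further: spheroids exposed to compounds for seven days.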
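Wherever viability, T/C is given: 100% = DMSO vehicle control viability.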

Structure (SMILES): CCCS(=O)(=O)Nc1ccc(F)c(C(=O)c2c[nH]c3ncc(-c4ccc(Cl)cc4)cc23)c1F + CN(C)c1ccc(Nc2c3ccc(NC(=O)CCN4CCCC4)cc3nc3cc(NC(=O)CCN4CCCC4)ccc23)cc1
- IC50 (second compound 0.0316 µM): 5.41 µM
- IC50 (second compound 0.1 µM): 6.13 µM
- IC50 (second compound 0.316 µM): 6.15 µM
- IC50 (second compound 1 µM): 5.52 µM
- IC50 (second compound 3.16 µM): 5.44 µM
- IC50 (second compound 10 µM): 3.72 µM
- viability, T/C [1]: 108%
- viability, T/C [2]: 104%
- viability, T/C [3]: 114%
- viability, T/C [4]: 110%
- viability, T/C [5]: 85%
- viability, T/C [6]: 10%
- viability, T/C [7]: 103%
- viability, T/C [8]: 98%
- viability, T/C [9]: 103%
- viability, T/C [10]: 123%
- viability, T/C [11]: 106%
- viability, T/C [12]: 8.55%
- viability, T/C [13]: 98.5%
- viability, T/C [14]: 101%
- viability, T/C [15]: 108%
- viability, T/C [16]: 105%
- viability, T/C [17]: 102%
- viability, T/C [18]: 11.7%
- viability, T/C [19]: 88.1%
- viability, T/C [20]: 94.3%
- viability, T/C [21]: 104%
- viability, T/C [22]: 87.9%
- viability, T/C [23]: 85.1%
- viability, T/C [24]: 12.6%
- viability, T/C [25]: 90%
- viability, T/C [26]: 74.1%
- viability, T/C [27]: 101%
- viability, T/C [28]: 89.5%
- viability, T/C [29]: 82.4%
- viability, T/C [30]: 13.5%
- viability, T/C [31]: 68.3%
- viability, T/C [32]: 70%
- viability, T/C [33]: 80.3%
- viability, T/C [34]: 67.2%
- viability, T/C [35]: 57.9%
- viability, T/C [36]: 4.49%

Structure (SMILES): Cc1[nH]c2ccccc2c1CCNCc1ccc(/C=C/C(=O)NO)cc1 + CN(C)c1ccc(Nc2c3ccc(NC(=O)CCN4CCCC4)cc3nc3cc(NC(=O)CCN4CCCC4)ccc23)cc1
- IC50 (second compound 0.0316 µM): 0.0725 µM
- IC50 (second compound 0.1 µM): 0.0668 µM
- IC50 (second compound 0.316 µM): 0.0563 µM
- IC50 (second compound 1 µM): 0.0488 µM
- IC50 (second compound 3.16 µM): 0.0532 µM
- IC50 (second compound 10 µM): 0.0354 µM
- viability, T/C (second compound 0.0316 µM, first compound 0.000999 µM): 104%
- viability, T/C (second compound 0.0316 µM, first compound 0.00316 µM): 102%
- viability, T/C (second compound 0.0316 µM, first compound 0.00999 µM): 106%
- viability, T/C [1]: 83.2%
- viability, T/C (second compound 0.0316 µM, first compound 0.0999 µM): 37.1%
- viability, T/C [3]: 6.62%
- viability, T/C (second compound 0.1 µM, first compound 0.000999 µM): 107%
- viability, T/C (second compound 0.1 µM, first compound 0.00316 µM): 96.7%
- viability, T/C (second compound 0.1 µM, first compound 0.00999 µM): 92.8%
- viability, T/C [7]: 89.5%
- viability, T/C (second compound 0.1 µM, first compound 0.0999 µM): 28.9%
- viability, T/C [9]: 6.22%
- viability, T/C (second compound 0.316 µM, first compound 0.000999 µM): 93.8%
- viability, T/C (second compound 0.316 µM, first compound 0.00316 µM): 93.3%
- viability, T/C (second compound 0.316 µM, first compound 0.00999 µM): 99.2%
- viability, T/C [13]: 68.7%
- viability, T/C (second compound 0.316 µM, first compound 0.0999 µM): 30.2%
- viability, T/C [15]: 6.88%
- viability, T/C (second compound 1 µM, first compound 0.000999 µM): 96.8%
- viability, T/C (second compound 1 µM, first compound 0.00316 µM): 92.5%
- viability, T/C (second compound 1 µM, first compound 0.00999 µM): 92.3%
- viability, T/C [19]: 65.1%
- viability, T/C (second compound 1 µM, first compound 0.0999 µM): 24.5%
- viability, T/C [21]: 8.83%
- viability, T/C (second compound 3.16 µM, first compound 0.000999 µM): 90.1%
- viability, T/C (second compound 3.16 µM, first compound 0.00316 µM): 86.7%
- viability, T/C (second compound 3.16 µM, first compound 0.00999 µM): 82.1%
- viability, T/C [25]: 70.3%
- viability, T/C (second compound 3.16 µM, first compound 0.0999 µM): 26.2%
- viability, T/C [27]: 7.17%
- viability, T/C (second compound 10 µM, first compound 0.000999 µM): 68%
- viability, T/C (second compound 10 µM, first compound 0.00316 µM): 70.9%
- viability, T/C (second compound 10 µM, first compound 0.00999 µM): 65.6%
- viability, T/C [31]: 51.8%
- viability, T/C (second compound 10 µM, first compound 0.0999 µM): 27.1%
- viability, T/C [33]: 4.66%

Structure (SMILES): O=c1[nH]cc(F)c(=O)[nH]1 + CN(C)c1ccc(Nc2c3ccc(NC(=O)CCN4CCCC4)cc3nc3cc(NC(=O)CCN4CCCC4)ccc23)cc1
- IC50 (second compound 0.0316 µM): 2.12 µM
- IC50 (second compound 0.1 µM): 2.06 µM
- IC50 (second compound 0.316 µM): 2.25 µM
- IC50 (second compound 1 µM): 1.46 µM
- IC50 (second compound 3.16 µM): 1.58 µM
- IC50 (second compound 10 µM): 1.92 µM
- viability, T/C [1]: 114%
- viability, T/C [2]: 98.1%
- viability, T/C [3]: 108%
- viability, T/C [4]: 84.2%
- viability, T/C [5]: 32.1%
- viability, T/C [6]: 30.2%
- viability, T/C [7]: 106%
- viability, T/C [8]: 95.6%
- viability, T/C [9]: 103%
- viability, T/C [10]: 83.4%
- viability, T/C [11]: 28.5%
- viability, T/C [12]: 31.7%
- viability, T/C [13]: 102%
- viability, T/C [14]: 103%
- viability, T/C [15]: 96.8%
- viability, T/C [16]: 81.1%
- viability, T/C [17]: 35.1%
- viability, T/C [18]: 38.6%
- viability, T/C [19]: 92.5%
- viability, T/C [20]: 99%
- viability, T/C [21]: 89.2%
- viability, T/C [22]: 56.9%
- viability, T/C [23]: 35.7%
- viability, T/C [24]: 35.1%
- viability, T/C [25]: 89.5%
- viability, T/C [26]: 71.5%
- viability, T/C [27]: 95.7%
- viability, T/C [28]: 59.9%
- viability, T/C [29]: 32.2%
- viability, T/C [30]: 37.6%
- viability, T/C [31]: 78.9%
- viability, T/C [32]: 74.2%
- viability, T/C [33]: 78%
- viability, T/C [34]: 64.8%
- viability, T/C [35]: 38.7%
- viability, T/C [36]: 36%
